{
  "source": "ChEMBL document CHEMBL4270560",
  "about": "“Novel curcumin analogue hybrids: Synthesis and anticancer activity” (Eur J Med Chem, 2018)",
  "key": {"[1]": {"tested_on": "SGC-7901", "assay": "Antiproliferative activity against human SGC7901 cells after 48 hrs by MTT assay", "assay_type": "functional, cell-based", "details": "SGC-7901, 48 h"}, "[2]": {"tested_on": "MGC-803", "assay": "Antiproliferative activity against human MGC803 cells after 48 hrs by MTT assay", "assay_type": "functional, cell-based", "details": "MGC-803, 48 h"}, "[3]": {"tested_on": "SMMC-7721", "assay": "Antiproliferative activity against human SMMC7721 cells after 48 hrs by MTT assay", "assay_type": "functional, cell-based", "details": "SMMC-7721, 48 h"}, "[4]": {"tested_on": "U-87 MG", "assay": "Antiproliferative activity against human U87 cells after 48 hrs by MTT assay", "assay_type": "functional, cell-based, U-87MG ATCC"}, "[5]": {"tested_on": "SGC-7901", "assay": "Cell cycle arrest in human SGC7901 cells assessed as accumulation at G2 phase at 600 nM after 48 hrs by propidium iodide staining based flow cytometric analysis (reference value: 18.77%)", "assay_type": "functional"}, "[6]": {"tested_on": "SGC-7901", "assay": "Cell cycle arrest in human SGC7901 cells assessed as accumulation at S phase at 600 nM after 48 hrs by propidium iodide staining based flow cytometric analysis (reference value: 33.30%)", "assay_type": "functional"}, "[7]": {"tested_on": "SGC-7901", "assay": "Cell cycle arrest in human SGC7901 cells assessed as accumulation at S phase at 800 nM after 48 hrs by propidium iodide staining based flow cytometric analysis (reference value: 33.30%)", "assay_type": "functional"}, "[8]": {"tested_on": "SGC-7901", "assay": "Cell cycle arrest in human SGC7901 cells assessed as accumulation at G2 phase at 1000 nM after 48 hrs by propidium iodide staining based flow cytometric analysis (reference value: 18.77%)", "assay_type": "functional"}, "[9]": {"tested_on": "SGC-7901", "assay": "Cell cycle arrest in human SGC7901 cells assessed as accumulation at S phase at 1000 nM after 48 hrs by propidium iodide staining based flow cytometric analysis (reference value: 33.30%)", "assay_type": "functional"}, "[10]": {"biological_target": "T1, Thioredoxin reductase (Homo sapiens) (UniProt Q16881+Q9NNW7+Q86VQ6)", "T1 sequence (Q16881 whole entry, looked up)": "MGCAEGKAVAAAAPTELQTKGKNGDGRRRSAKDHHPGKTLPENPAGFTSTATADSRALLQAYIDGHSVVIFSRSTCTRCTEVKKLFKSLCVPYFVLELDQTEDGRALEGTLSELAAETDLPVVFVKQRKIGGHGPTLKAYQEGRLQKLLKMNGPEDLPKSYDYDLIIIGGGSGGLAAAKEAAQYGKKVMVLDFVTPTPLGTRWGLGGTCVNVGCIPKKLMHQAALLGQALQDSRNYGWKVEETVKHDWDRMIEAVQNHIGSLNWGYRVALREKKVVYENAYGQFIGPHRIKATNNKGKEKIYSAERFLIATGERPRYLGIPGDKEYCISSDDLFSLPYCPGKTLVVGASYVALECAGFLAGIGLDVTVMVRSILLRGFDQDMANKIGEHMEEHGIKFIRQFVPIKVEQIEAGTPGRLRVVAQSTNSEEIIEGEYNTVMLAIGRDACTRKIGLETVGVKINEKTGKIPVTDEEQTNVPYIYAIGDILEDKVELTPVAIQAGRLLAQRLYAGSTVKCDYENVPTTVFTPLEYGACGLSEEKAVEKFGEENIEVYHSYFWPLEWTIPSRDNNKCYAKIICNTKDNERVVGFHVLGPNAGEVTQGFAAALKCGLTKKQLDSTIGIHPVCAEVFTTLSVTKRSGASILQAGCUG", "T1 sequence (Q86VQ6 whole entry, looked up)": "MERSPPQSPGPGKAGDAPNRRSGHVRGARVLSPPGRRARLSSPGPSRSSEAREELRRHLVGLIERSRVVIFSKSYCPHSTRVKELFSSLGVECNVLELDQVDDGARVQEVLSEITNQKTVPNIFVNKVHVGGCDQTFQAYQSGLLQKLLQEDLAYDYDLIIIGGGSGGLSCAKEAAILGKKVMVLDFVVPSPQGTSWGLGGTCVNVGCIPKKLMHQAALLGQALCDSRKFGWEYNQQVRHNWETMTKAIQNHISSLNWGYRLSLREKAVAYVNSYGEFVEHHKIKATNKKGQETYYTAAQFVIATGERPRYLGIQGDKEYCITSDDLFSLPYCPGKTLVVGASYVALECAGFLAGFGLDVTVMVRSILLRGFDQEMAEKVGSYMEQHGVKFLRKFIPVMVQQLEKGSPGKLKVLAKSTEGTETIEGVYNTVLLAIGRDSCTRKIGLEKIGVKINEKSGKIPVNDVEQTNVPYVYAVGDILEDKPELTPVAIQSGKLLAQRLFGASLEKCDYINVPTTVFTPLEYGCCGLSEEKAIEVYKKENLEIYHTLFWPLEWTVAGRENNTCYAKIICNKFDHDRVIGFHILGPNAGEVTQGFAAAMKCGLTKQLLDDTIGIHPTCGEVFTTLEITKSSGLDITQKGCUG", "T1 sequence (Q9NNW7 whole entry, looked up)": "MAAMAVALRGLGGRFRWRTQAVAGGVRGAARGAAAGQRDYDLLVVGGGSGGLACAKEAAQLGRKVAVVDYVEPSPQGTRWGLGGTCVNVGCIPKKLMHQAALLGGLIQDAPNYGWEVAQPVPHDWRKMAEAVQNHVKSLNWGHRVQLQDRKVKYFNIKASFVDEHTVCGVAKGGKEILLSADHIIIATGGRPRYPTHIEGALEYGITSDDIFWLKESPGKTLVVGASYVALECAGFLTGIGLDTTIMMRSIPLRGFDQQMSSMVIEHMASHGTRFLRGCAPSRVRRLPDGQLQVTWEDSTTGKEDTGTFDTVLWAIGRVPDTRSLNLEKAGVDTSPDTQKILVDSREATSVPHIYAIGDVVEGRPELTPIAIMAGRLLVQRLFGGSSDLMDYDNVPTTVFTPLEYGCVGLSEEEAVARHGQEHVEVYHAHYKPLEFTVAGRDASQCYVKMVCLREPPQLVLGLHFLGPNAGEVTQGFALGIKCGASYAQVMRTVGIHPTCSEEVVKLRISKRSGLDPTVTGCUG", "assay": "Inhibition of TrxR in human SGC7901 cells assessed as induction of intracellular ROS generation at 800 to 1000 nM after 5 hrs in presence of NAC by DCFH-DA staining based flow cytometric analysis", "assay_type": "cell-based"}, "[11]": {"tested_on": "SGC-7901", "assay": "Induction of mitochondrial membrane depolarization in human SGC7901 cells assessed as cells with mitochondrial membrane potential loss at 1000 nM after 48 hrs in presence of NAC by JC-1 staining based flow cytometric analysis (reference value: 1.65%)", "assay_type": "functional"}, "[12]": {"tested_on": "SGC-7901", "assay": "Induction of mitochondrial membrane depolarization in human SGC7901 cells assessed as cells with intact mitochondrial membrane potential at 1000 nM after 48 hrs in presence of NAC by JC-1 staining based flow cytometric analysis (reference value: 98%)", "assay_type": "functional"}, "[13]": {"tested_on": "SGC-7901", "assay": "Induction of mitochondrial membrane depolarization in human SGC7901 cells assessed as cells with mitochondrial membrane potential loss at 1200 nM after 48 hrs in presence of NAC by JC-1 staining based flow cytometric analysis (reference value: 1.65%)", "assay_type": "functional"}, "[14]": {"tested_on": "SGC-7901", "assay": "Induction of mitochondrial membrane depolarization in human SGC7901 cells assessed as cells with intact mitochondrial membrane potential at 1200 nM after 48 hrs in presence of NAC by JC-1 staining based flow cytometric analysis (reference value: 98%)", "assay_type": "functional"}, "[15]": {"tested_on": "SGC-7901", "assay": "Induction of apoptosis in human SGC7901 cells assessed as early apoptotic cells at 600 nM after 48 hrs by Annexin V-FITC/propidium iodide staining based flow cytometric analysis (reference value: 2.30%)", "assay_type": "functional"}, "[16]": {"tested_on": "SGC-7901", "assay": "Induction of apoptosis in human SGC7901 cells assessed as late apoptotic cells at 600 nM after 48 hrs by Annexin V-FITC/propidium iodide staining based flow cytometric analysis (reference value: 1.73%)", "assay_type": "functional"}, "[17]": {"tested_on": "SGC-7901", "assay": "Induction of apoptosis in human SGC7901 cells assessed as viable cells at 600 nM after 48 hrs by Annexin V-FITC/propidium iodide staining based flow cytometric analysis (reference value: 95.9%)", "assay_type": "functional", "details": "SGC-7901, 48 h, read-out: Activity"}, "[18]": {"tested_on": "SGC-7901", "assay": "Induction of apoptosis in human SGC7901 cells assessed as late apoptotic cells at 800 nM after 48 hrs by Annexin V-FITC/propidium iodide staining based flow cytometric analysis (reference value: 1.73%)", "assay_type": "functional"}, "[19]": {"tested_on": "SGC-7901", "assay": "Induction of apoptosis in human SGC7901 cells assessed as necrotic cells at 800 nM after 48 hrs by Annexin V-FITC/propidium iodide staining based flow cytometric analysis (reference value: 0.052%)", "assay_type": "functional"}, "[20]": {"tested_on": "SGC-7901", "assay": "Induction of apoptosis in human SGC7901 cells assessed as viable cells at 800 nM after 48 hrs by Annexin V-FITC/propidium iodide staining based flow cytometric analysis (reference value: 95.9%)", "assay_type": "functional", "details": "SGC-7901, 48 h, read-out: Activity"}, "[21]": {"tested_on": "SGC-7901", "assay": "Induction of apoptosis in human SGC7901 cells assessed as early apoptotic cells at 1000 nM after 48 hrs by Annexin V-FITC/propidium iodide staining based flow cytometric analysis (reference value: 0.851 to 2.30%)", "assay_type": "functional"}, "[22]": {"tested_on": "SGC-7901", "assay": "Induction of apoptosis in human SGC7901 cells assessed as early apoptotic cells at 1200 nM after 48 hrs by Annexin V-FITC/propidium iodide staining based flow cytometric analysis (reference value: 0.851 to 2.30%)", "assay_type": "functional"}, "[23]": {"tested_on": "SGC-7901", "assay": "Induction of apoptosis in human SGC7901 cells assessed as early apoptotic cells at 1000 nM after 48 hrs in presence of NAC by Annexin V-FITC/propidium iodide staining based flow cytometric analysis (reference value: 0.851%)", "assay_type": "functional"}, "[24]": {"tested_on": "SGC-7901", "assay": "Induction of apoptosis in human SGC7901 cells assessed as late apoptotic cells at 1000 nM after 48 hrs in presence of NAC by Annexin V-FITC/propidium iodide staining based flow cytometric analysis (reference value: 2.85%)", "assay_type": "functional"}, "[25]": {"tested_on": "SGC-7901", "assay": "Induction of apoptosis in human SGC7901 cells assessed as necrotic cells at 1000 nM after 48 hrs in presence of NAC by Annexin V-FITC/propidium iodide staining based flow cytometric analysis (reference value: 0.304%)", "assay_type": "functional"}, "[26]": {"tested_on": "SGC-7901", "assay": "Induction of apoptosis in human SGC7901 cells assessed as early apoptotic cells at 1200 nM after 48 hrs in presence of NAC by Annexin V-FITC/propidium iodide staining based flow cytometric analysis (reference value: 0.851%)", "assay_type": "functional"}, "[27]": {"tested_on": "SGC-7901", "assay": "Induction of apoptosis in human SGC7901 cells assessed as necrotic cells at 1200 nM after 48 hrs in presence of NAC by Annexin V-FITC/propidium iodide staining based flow cytometric analysis (reference value: 0.304%)", "assay_type": "functional"}, "[28]": {"tested_on": "SGC-7901", "assay": "Induction of apoptosis in human SGC7901 cells assessed as viable cells at 1200 nM after 48 hrs in presence of NAC by Annexin V-FITC/propidium iodide staining based flow cytometric analysis (reference value: 96%)", "assay_type": "functional", "details": "SGC-7901, 48 h, read-out: Activity"}, "[29]": {"biological_target": "T1, Thioredoxin reductase (Homo sapiens)", "assay": "Inhibition of TrxR in human SGC7901 cells assessed as JNK phosphorylation at 600 to 1200 nM after 48 hrs by Western blot analysis", "assay_type": "cell-based"}, "[30]": {"tested_on": "SGC-7901", "assay": "Induction of apoptosis in human SGC7901 cells assessed as increase in Bax to Bcl-2 ratio level at 600 to 1200 nM after 48 hrs by Western blot analysis", "assay_type": "functional, cell-based"}, "[31]": {"tested_on": "SGC-7901", "assay": "Induction of apoptosis in human SGC7901 cells assessed as decrease in PARP level at 600 to 1200 nM after 48 hrs by Western blot analysis", "assay_type": "functional, cell-based"}, "[32]": {"tested_on": "SGC-7901", "assay": "Induction of apoptosis in human SGC7901 cells assessed as increase in Bax to Bcl-2 ratio level at 1200 nM after 48 hrs in presence of NAC by Western blot analysis", "assay_type": "functional, cell-based"}},
  "note": "Activity calls are given as the source filed them. No cut-off for these calls is given here.",
  "data": [
    {"smiles": "COc1cc(OC)c2c(=O)c(OCCCOc3ccccc3/C=C/C(=O)/C=C/c3ccccn3)c(-c3cc(OC)c(OC)c(OC)c3)oc2c1", "values": [
      {"measurement": "IC50", "setting": "[1]", "result": 1080, "unit": "nM"},
      {"measurement": "IC50", "setting": "[2]", "result": 560, "unit": "nM"},
      {"measurement": "IC50", "setting": "[3]", "result": 3180, "unit": "nM"},
      {"measurement": "IC50", "setting": "[4]", "result": 3930, "unit": "nM"},
      {"measurement": "Activity", "setting": "[5]", "result": 15.61, "unit": "%"},
      {"measurement": "Activity", "setting": "[6]", "result": 35.47, "unit": "%"},
      {"measurement": "Activity", "setting": "[7]", "result": 35.37, "unit": "%"},
      {"measurement": "Activity", "setting": "[8]", "result": 10.44, "unit": "%"},
      {"measurement": "Activity", "setting": "[9]", "result": 33.28, "unit": "%"},
      {"measurement": "inhibition", "setting": "[10]", "result": "inactive"},
      {"measurement": "Activity", "setting": "[11]", "result": 2.32, "unit": "%"},
      {"measurement": "Activity", "setting": "[12]", "result": 97.3, "unit": "%"},
      {"measurement": "Activity", "setting": "[13]", "result": 1.74, "unit": "%"},
      {"measurement": "Activity", "setting": "[14]", "result": 97.5, "unit": "%"},
      {"measurement": "Activity", "setting": "[15]", "result": 5.79, "unit": "%"},
      {"measurement": "Activity", "setting": "[16]", "result": 6.4, "unit": "%"},
      {"measurement": "viability at 0.6 µM", "setting": "[17]", "result": 87.7, "unit": "%"},
      {"measurement": "Activity", "setting": "[18]", "result": 8.3, "unit": "%"},
      {"measurement": "Activity", "setting": "[19]", "result": 0.425, "unit": "%"},
      {"measurement": "viability at 0.8 µM", "setting": "[20]", "result": 66.8, "unit": "%"},
      {"measurement": "Activity", "setting": "[21]", "result": "24.7 - 32.2%"},
      {"measurement": "Activity", "setting": "[22]", "result": "29.8 - 55.2%"},
      {"measurement": "Activity", "setting": "[23]", "result": 2.13, "unit": "%"},
      {"measurement": "Activity", "setting": "[24]", "result": 2.84, "unit": "%"},
      {"measurement": "Activity", "setting": "[25]", "result": 0.92, "unit": "%"},
      {"measurement": "Activity", "setting": "[26]", "result": 4.46, "unit": "%"},
      {"measurement": "Activity", "setting": "[27]", "result": 0.225, "unit": "%"},
      {"measurement": "viability at 1.2 µM", "setting": "[28]", "result": 74.1, "unit": "%"},
      {"measurement": "inhibition", "setting": "[29]", "result": "Active"},
      {"measurement": "Activity", "setting": "[30]", "result": "Active"},
      {"measurement": "Activity", "setting": "[31]", "result": "Active"},
      {"measurement": "Activity", "setting": "[32]", "result": "inactive"}
    ]}
  ]
}
